Consider twelve compounds from ChEMBL document CHEMBL1137483, “Novel chalcones as probes for in vivo imaging of beta-amyloid plaques in Alzheimer's brains” (Bioorg Med Chem, 2007).

The Ki is the dissociation constant of the complex between target and ligand, obtained from inhibition or displacement.

Data set [1] in a line: Displacement of [125I](E)-3-(4-(Dimethylamino-phenyl)-1-(4-iodophenyl)prop-2-en-1-one from beta amyloid(1-42) aggregates. Further details: species or system Homo sapiens.
Data set [2] concerns Brain. The data set is described as follows: Biodistribution in ddY mouse brain at 0.2 to 0.3 uCi, iv after 2 mins. Type of data set: ADME, organism-based. The conditions noted are these: in vivo.
In data set [3] the test system is Stomach. In words: Biodistribution in ddY mouse stomach after 30 mins. It counts as ADME, organism-based. The settings on record: in vivo, 0.5 h.
Data set [4] concerns Kidney. The data set is described as follows: Biodistribution in ddY mouse kidney at 0.2 to 0.3 uCi, iv after 30 mins. It counts as ADME, organism-based. The settings on record: in vivo, 0.5 h.
Data set [5] deals with Intestine. In words: Biodistribution in ddY mouse intestine at 0.2 to 0.3 uCi, iv after 2 mins. It counts as ADME, organism-based. The conditions noted are these: in vivo.
The subject of data set [6] is Lung. The data set is described as follows: Biodistribution in ddY mouse lung at 0.2 to 0.3 uCi, iv after 2 mins. It counts as ADME, organism-based. The conditions noted are these: in vivo.
The test system of data set [7] is Kidney. The data set is described as follows: Biodistribution in ddY mouse kidney at 0.2 to 0.3 uCi, iv after 2 mins. It counts as ADME, organism-based. The settings on record: in vivo.
In data set [8] the test system is Spleen. In words: Biodistribution in ddY mouse spleen assessed as at 0.2 to 0.3 uCi, iv after 30 mins. Type of data set: ADME, organism-based. The conditions noted are these: in vivo, 0.5 h.
Data set [9] relates to Blood. The data set is described as follows: Biodistribution in ddY mouse blood at 0.2 to 0.3 uCi, iv after 2 mins. It counts as ADME, organism-based. The conditions noted are these: in vivo.
Data set [10] relates to Stomach. In words: Biodistribution in ddY mouse stomach at 0.2 to 0.3 uCi, iv after 2 mins. The settings on record: in vivo. It counts as ADME, organism-based.
Data set [11] deals with Intestine. The data set is described as follows: Biodistribution in ddY mouse intestine at 0.2 to 0.3 uCi, iv after 30 mins. It counts as ADME, organism-based. The conditions noted are these: in vivo, 0.5 h.
For data set [12], the system named is Heart. In words: Biodistribution in ddY mouse heart at 0.2 to 0.3 uCi, iv after 2 mins. Type of data set: ADME, organism-based. The conditions noted are these: in vivo.
The subject of data set [13] is Lung. In words: Biodistribution in ddY mouse lung at 0.2 to 0.3 uCi, iv after 30 mins. The conditions noted are these: in vivo, 0.5 h. It counts as ADME, organism-based.
Data set [14] concerns Brain. In words: Biodistribution in ddY mouse brain at 0.2 to 0.3 uCi, iv after 30 mins. Type of data set: ADME, organism-based. The settings on record: in vivo, 0.5 h.
Data set [15] relates to Liver. The data set is described as follows: Biodistribution in ddY mouse liver at 0.2 to 0.3 uCi, iv after 2 mins. The conditions noted are these: in vivo. It counts as ADME, organism-based.
Data set [16] concerns Liver. In words: Biodistribution in ddY mouse liver at 0.2 to 0.3 uCi, iv after 30 mins. The settings on record: in vivo, 0.5 h. Type of data set: ADME, organism-based.
The subject of data set [17] is Blood. The data set is described as follows: Biodistribution in ddY mouse blood at 0.2 to 0.3 uCi, iv after 30 mins. The conditions noted are these: in vivo, 0.5 h. Type of data set: ADME, organism-based.
Data set [18] deals with Heart. In words: Biodistribution in ddY mouse heart at 0.2 to 0.3 uCi, iv after 30 mins. Type of data set: ADME, organism-based. The settings on record: in vivo, 0.5 h.
Data set [19] concerns Spleen. The data set is described as follows: Biodistribution in ddY mouse spleen at 0.2 to 0.3 uCi, iv after 2 mins. Type of data set: ADME, organism-based. The settings on record: in vivo.

Molecules are shown by their SMILES. A value given as a limit tells only on which side of the number the result lay.

`O=C(/C=C/c1ccc(O)cc1)c1ccc(I)cc1` registered a Ki in data set [1] of 21.4 nM.

Take `CN(C)c1ccc(/C=C/C(=O)c2ccc([125I])cc2)cc1`: the Drug uptake in the data set on Brain [2] worked out at 2.04 % ID/g; in the data set with Stomach [3] it was 2.45 %ID; in the data set on Kidney [4], 11.62 % ID/g; with Intestine [5], 1.31 % ID/g; in the data set on Lung [6], 3.4 % ID/g; in the data set with Kidney [7], 5.32 % ID/g. Further, the Drug uptake with Spleen [8] amounted to 0.6 % ID/g; with Blood [9], 1.85 % ID/g; in the data set with Stomach [10], 0.96 %ID; with Intestine [11], 10.38 % ID/g; with Heart [12], 3.92 % ID/g; with Lung [13] it was 1.84 % ID/g. The Drug uptake in the data set on Brain [14] was found to be 0.49 % ID/g; in the data set with Liver [15], 10.02 % ID/g; in the data set with Liver [16], 11.04 % ID/g; in the data set with Blood [17] it was 1.4 % ID/g; with Heart [18] it was 1.18 % ID/g; with Spleen [19], 1.37 % ID/g.

On to `COc1ccc(/C=C/C(=O)c2ccc([125I])cc2)cc1`, for which the Drug uptake in the data set with Brain [2] came out at 2.45 % ID/g; in the data set with Stomach [3] it was 2.11 %ID; with Kidney [4], 3.27 % ID/g; in the data set with Intestine [5], 1.93 % ID/g; in the data set on Lung [6], 3.81 % ID/g; in the data set with Kidney [7], 4.61 % ID/g. Besides, the Drug uptake in the data set with Spleen [8] is on record as 0.29 % ID/g; in the data set on Blood [9] it was 1.34 % ID/g; in the data set on Stomach [10] it was 0.9 %ID; in the data set on Intestine [11], 10.19 % ID/g; in the data set with Heart [12], 3.74 % ID/g; in the data set on Lung [13], 0.79 % ID/g. Also, the Drug uptake came to 0.22 % ID/g with Brain [14]; 5.97 % ID/g with Liver [15]; 4.03 % ID/g in the data set with Liver [16]; 0.46 % ID/g in the data set on Blood [17]; 0.63 % ID/g with Heart [18]; 1.38 % ID/g in the data set on Spleen [19].

Consider `O=C(/C=C/c1ccc(O)cc1)c1ccc([125I])cc1`, for which the Drug uptake with Brain [2] is 3.57 % ID/g; in the data set with Stomach [3], 2.16 %ID; with Kidney [4], 3.51 % ID/g; in the data set on Intestine [5], 1.87 % ID/g; in the data set with Lung [6], 10.04 % ID/g; in the data set with Kidney [7] it was 9.3 % ID/g. Further, the Drug uptake in the data set on Spleen [8] is 1.04 % ID/g; with Blood [9], 1.89 % ID/g; in the data set with Stomach [10] it was 1.22 %ID; in the data set on Intestine [11] it was 12.94 % ID/g; in the data set with Heart [12], 5.92 % ID/g; in the data set on Lung [13], 1.04 % ID/g. Moreover, the Drug uptake in the data set with Brain [14] is on record as 0.4 % ID/g; in the data set with Liver [15], 8.39 % ID/g; in the data set on Liver [16], 6.64 % ID/g; in the data set with Blood [17] it was 0.57 % ID/g; with Heart [18] it was 0.49 % ID/g; with Spleen [19], 3.56 % ID/g.

Regarding `COc1ccc(/C=C/C(=O)c2ccc(I)cc2)cc1`, the Ki in data set [1] was 6.3 nM.

With `CN(C)c1ccc(/C=C/C(=O)c2ccc(I)cc2)cc1`, in [1], affinity was put at a Ki of 2.9 nM.

In the case of `Nc1ccc(/C=C/C(=O)c2ccc([125I])cc2)cc1`, the Drug uptake is 4.49 % ID/g in the data set with Brain [2]; 1.58 %ID in the data set on Stomach [3]; 6.34 % ID/g in the data set with Kidney [4]; 1.84 % ID/g with Intestine [5]; 4.74 % ID/g with Lung [6]; 6.96 % ID/g in the data set with Kidney [7]. The Drug uptake was 0.6 % ID/g in the data set on Spleen [8]; 3.62 % ID/g in the data set with Blood [9]; 0.87 %ID in the data set with Stomach [10]; 11.27 % ID/g in the data set with Intestine [11]; 4.59 % ID/g with Heart [12]; 1.43 % ID/g in the data set with Lung [13]. Besides, the Drug uptake in the data set with Brain [14] is on record as 0.46 % ID/g; in the data set on Liver [15], 7.52 % ID/g; in the data set with Liver [16], 8.16 % ID/g; in the data set with Blood [17], 1.46 % ID/g; in the data set with Heart [18] it was 0.84 % ID/g; in the data set on Spleen [19], 1.53 % ID/g.

`Nc1ccc(/C=C/C(=O)c2ccc(I)cc2)cc1` showed a Ki in data set [1] of 105 nM.

In turn, `CNc1ccc(/C=C/C(=O)c2ccc(I)cc2)cc1` registered an inhibitory constant (Ki) in [1] of 6.3 nM.

As to `CNc1ccc(/C=C/C(=O)c2ccc([125I])cc2)cc1`, the Drug uptake is recorded as 4.72 % ID/g in the data set with Brain [2]; 1.28 %ID in the data set on Stomach [3]; 11.43 % ID/g in the data set with Kidney [4]; 2.06 % ID/g in the data set with Intestine [5]; 8.3 % ID/g in the data set with Lung [6]; 6.62 % ID/g with Kidney [7]. The Drug uptake worked out at 0.8 % ID/g in the data set on Spleen [8]; 1.64 % ID/g in the data set with Blood [9]; 1.02 %ID with Stomach [10]; 10.46 % ID/g in the data set on Intestine [11]; 4.72 % ID/g with Heart [12]; 4.01 % ID/g in the data set on Lung [13]. Also, the Drug uptake with Brain [14] is recorded as 0.61 % ID/g; in the data set on Liver [15], 7.2 % ID/g; with Liver [16], 8.61 % ID/g; in the data set with Blood [17] it was 1.47 % ID/g; in the data set with Heart [18], 1.08 % ID/g; in the data set on Spleen [19], 2.85 % ID/g.

As to `Nc1c(/N=N/c2ccc(-c3ccc(/N=N/c4cc(S(=O)(=O)O)c5ccccc5c4N)cc3)cc2)cc(S(=O)(=O)O)c2ccccc12` [CONGO RED], the Ki in data set [1] was more than 10000 nM.

Take `Cc1ccc2c(c1)sc(-c1ccc(N(C)C)cc1)[n+]2C` [THIOFLAVIN T]: the Ki in data set [1] was more than 10000 nM.
